Laboratory results reported in patent publication US8993574B2, “Pyrrole antifungal agents” (F2G Ltd, priority 2008, dated 2015).
Converted amounts (≈) assume the structure as drawn.

How the values were obtained:
Type in all cases: cell-based
Aspergillus terreus AT4 [1] = experiment: MIC, RPMI medium; settings: for MIC: Aspergillus terreus, AT4, MIC banded into grades, read-out: MIC grade, A. terreus
Summary of the method: (§1)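 MIC taken as lowest drug level inhibiting growth by >80% relative to drug-free wells, read as OD at 485 nm after 24-48 h at 35° C. Organisms at 1−2×10^4 cfu/mL in RPMI (2% glucose, 0.135 M MOPS, pH 7.0) exposed to doubling dilutions spanning 50-0.05 mg/L.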

Aspergillus flavus [2] = experiment: MIC, RPMI medium; settings: MIC banded into grades; for MIC: Aspergillus flavus, read-out: MIC grade, A. flavus
Summary of the method: as §1

Aspergillus terreus AT49 [3] = experiment: MIC, RPMI medium; settings: for MIC: Aspergillus terreus, AT49, MIC banded into grades, read-out: MIC grade, A. terreus 49
Summary of the method: as §1

Aspergillus niger [4] = experiment: MIC, RPMI medium; settings: MIC banded into grades; for MIC: Aspergillus niger, read-out: MIC grade, A. niger
Summary of the method: as §1

[5] = test system: Aspergillus fumigatus AF293; experiment: MIC, RPMI medium; settings: for MIC: Aspergillus fumigatus, AF293, MIC banded into grades, read-out: MIC grade, A. fumigatus
Summary of the method: as §1

[6] = test system: Aspergillus fumigatus AF210; experiment: MIC, RPMI medium; settings: for MIC: Aspergillus fumigatus, AF210, MIC banded into grades, read-out: MIC grade, A. fumigatus 210
Summary of the method: as §1

Aspergillus terreus AT4 [7] = experiment: MIC, YAG medium; settings: 24 h at 35° C, MIC banded into grades; for MIC: Aspergillus terreus, read-out: MIC grade, A. terreus
Summary of the method: (§2)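 Endpoint is growth at OD 485 nm after 24 h at 35° C, with MIC defined as the lowest drug level giving >70% inhibition relative to untreated wells and recorded in mg/L. Tests ran in YAG broth with 1−2×10^4 cfu/mL spore inocula from Sabouraud-grown cultures. Drug ranges were 50-0.05 mg/L, repeated at 0.5-0.0005 mg/L when needed.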

Aspergillus flavus [8] = experiment: MIC, YAG medium; settings: 24 h at 35° C, MIC banded into grades; for MIC: Aspergillus flavus, 24 h, read-out: MIC grade, A. flavus
Summary of the method: as §2

Aspergillus terreus AT49 [9] = experiment: MIC, YAG medium; settings: 24 h at 35° C, MIC banded into grades; for MIC: Aspergillus terreus, read-out: MIC grade, A. terreus 49
Summary of the method: as §2

Aspergillus niger [10] = experiment: MIC, YAG medium; settings: 24 h at 35° C, MIC banded into grades; for MIC: Aspergillus niger, read-out: MIC grade, A. niger
Summary of the method: as §2

[11] = test system: Aspergillus fumigatus AF293; experiment: MIC, YAG medium; settings: 24 h at 35° C, MIC banded into grades; for MIC: Aspergillus fumigatus, read-out: MIC grade, A. fumigatus
Summary of the method: as §2

[12] = test system: Aspergillus fumigatus AF210; experiment: MIC, YAG medium; settings: 24 h at 35° C, MIC banded into grades; for MIC: Aspergillus fumigatus, read-out: MIC grade, A. fumigatus 210
Summary of the method: as §2

Q: For `Cc1cc(-c2ccccc2)c(C(=O)C(=O)Nc2ccc(N3CCOCC3)cc2F)n1C` [Example 101, 2-(1,5-Dimethyl-3-phenyl-1H-pyrrol-2-yl)-N-(2-fluoro-4-morpholin-4-yl-phenyl)-2-oxo-acetamide], which MIC (Aspergillus terreus AT4 [1]) is on record?
A: < 1 µg/mL

Q: And the MIC (Aspergillus flavus [2])?
A: < 1 µg/mL

Q: What about the MIC (Aspergillus terreus AT49 [3]) of the same molecule?
A: < 1 µg/mL

Q: What about the MIC (Aspergillus niger [4]) of the same molecule?
A: < 1 µg/mL

Q: And the MIC [5]?
A: < 1 µg/mL

Q: And the MIC [6]?
A: < 1 µg/mL

Q: What about the MIC (Aspergillus terreus AT4 [7]) of the same molecule?
A: < 1 µg/mL

Q: And the MIC (Aspergillus flavus [8])?
A: < 1 µg/mL

Q: And the MIC (Aspergillus terreus AT49 [9])?
A: < 1 µg/mL

Q: What about the MIC (Aspergillus niger [10]) of the same molecule?
A: < 1 µg/mL

Q: And the MIC [11]?
A: < 1 µg/mL

Q: What about the MIC [12] of the same molecule?
A: < 1 µg/mL

Q: Which results are given for `Cc1cc(C)nc(N2CCN(c3ccc(NC(=O)C(=O)c4c(-c5ccccc5)cc(C)n4Cc4ccncc4)cc3)CC2)c1` [Example 102, N-{4-[4-(4,6-Dimethyl-pyridin-2-yl)-piperazin-1-yl]-phenyl}-2-(5-methyl-3-phenyl-1-pyridin-4-ylmethyl-1H-pyrrol-2-yl)-2-oxo-acetamide]?
A: MIC (Aspergillus terreus AT4 [1]): > 10 µg/mL; MIC (Aspergillus flavus [2]): > 10 µg/mL; MIC (Aspergillus terreus AT49 [3]): > 10 µg/mL; MIC (Aspergillus niger [4]): > 10 µg/mL; MIC [5]: > 10 µg/mL; MIC [6]: > 10 µg/mL; MIC (Aspergillus terreus AT4 [7]): > 10 µg/mL; MIC (Aspergillus flavus [8]): > 10 µg/mL; MIC (Aspergillus terreus AT49 [9]): > 10 µg/mL; MIC (Aspergillus niger [10]): > 10 µg/mL; MIC [11]: 1 to 10 µg/mL (≈ 1.71 to 17.1 µM); MIC [12]: > 10 µg/mL

Q: How did the MIC (Aspergillus terreus AT4 [1]) turn out when `Cc1cc(-c2ccccc2)c(C(=O)C(=O)Nc2ccc(N3CCN(CC(C)C)CC3)cc2F)n1C` [Example 105, 2-(1,5-Dimethyl-3-phenyl-1H-pyrrol-2-yl)-N-[2-fluoro-4-(4-isobutyl-piperazin-1-yl)-phenyl]-2-oxo-acetamide] was run?
A: < 1 µg/mL

Q: And the MIC (Aspergillus flavus [2])?
A: < 1 µg/mL

Q: What about the MIC (Aspergillus terreus AT49 [3]) of the same molecule?
A: < 1 µg/mL

Q: And the MIC (Aspergillus niger [4])?
A: < 1 µg/mL

Q: What about the MIC [5] of the same molecule?
A: < 1 µg/mL

Q: And the MIC [6]?
A: < 1 µg/mL

Q: What about the MIC (Aspergillus terreus AT4 [7]) of the same molecule?
A: < 1 µg/mL

Q: What about the MIC (Aspergillus flavus [8]) of the same molecule?
A: < 1 µg/mL

Q: And the MIC (Aspergillus terreus AT49 [9])?
A: < 1 µg/mL

Q: What about the MIC (Aspergillus niger [10]) of the same molecule?
A: < 1 µg/mL

Q: What about the MIC [11] of the same molecule?
A: < 1 µg/mL

Q: What about the MIC [12] of the same molecule?
A: < 1 µg/mL

Q: For `Cc1cc(-c2ccccc2)c(C(=O)C(=O)Nc2ccc(N3CCCCC3)cc2F)n1C` [Example 106, 2-(1,5-Dimethyl-3-phenyl-1H-pyrrol-2-yl)-N-(2-fluoro-4-piperidin-1-yl-phenyl)-2-oxo-acetamide], which MIC (Aspergillus terreus AT4 [1]) is on record?
A: < 1 µg/mL

Q: What about the MIC (Aspergillus flavus [2]) of the same molecule?
A: < 1 µg/mL

Q: And the MIC (Aspergillus terreus AT49 [3])?
A: < 1 µg/mL

Q: What about the MIC (Aspergillus niger [4]) of the same molecule?
A: < 1 µg/mL

Q: And the MIC [5]?
A: < 1 µg/mL

Q: And the MIC [6]?
A: < 1 µg/mL

Q: What about the MIC (Aspergillus terreus AT4 [7]) of the same molecule?
A: < 1 µg/mL

Q: What about the MIC (Aspergillus flavus [8]) of the same molecule?
A: < 1 µg/mL

Q: And the MIC (Aspergillus terreus AT49 [9])?
A: < 1 µg/mL

Q: What about the MIC (Aspergillus niger [10]) of the same molecule?
A: < 1 µg/mL

Q: And the MIC [11]?
A: < 1 µg/mL

Q: What about the MIC [12] of the same molecule?
A: < 1 µg/mL

Q: Which “MIC grade, A. terreus” value (Aspergillus terreus AT4 [1]; MIC banded into grades) does the source give for `COC(=O)Cn1ccc(C2CCC2)c1C(=O)C(=O)Nc1ccc(N2CCN(c3cc(C)cc(C)n3)CC2)cc1` [Example 107, (3-Cyclobutyl-2-{4-[4-(4,6-dimethyl-pyridin-2-yl)-piperazin-1-yl]-phenylaminooxalyl}-pyrrol-1-yl)-acetic acid methyl ester] here?
A: 1 (a grade of 1 represents an MIC of greater than 10 mg/L)

Q: And the “MIC grade, A. flavus” value (Aspergillus flavus [2])?
A: 1 (a grade of 1 represents an MIC of greater than 10 mg/L)

Q: What about the “MIC grade, A. terreus 49” value (Aspergillus terreus AT49 [3]; MIC banded into grades) of the same molecule?
A: 1 (a grade of 1 represents an MIC of greater than 10 mg/L)

Q: What about the “MIC grade, A. niger” value (Aspergillus niger [4]) of the same molecule?
A: 1 (a grade of 1 represents an MIC of greater than 10 mg/L)

Q: What about the “MIC grade, A. fumigatus” value ([5]; MIC banded into grades) of the same molecule?
A: 3 (A grade of 3 represents an MIC of less than 1 mg/L)

Q: What about the “MIC grade, A. fumigatus 210” value ([6]; MIC banded into grades) of the same molecule?
A: 2 (A grade of 2 represents an MIC of from 1 to 10 mg/L)

Q: And the “MIC grade, A. terreus” value (Aspergillus terreus AT4 [7])?
A: 1 (a grade of 1 represents an MIC of greater than 10 mg/L)

Q: And the “MIC grade, A. flavus” value (Aspergillus flavus [8])?
A: 1 (a grade of 1 represents an MIC of greater than 10 mg/L)

Q: And the “MIC grade, A. terreus 49” value (Aspergillus terreus AT49 [9])?
A: 1 (a grade of 1 represents an MIC of greater than 10 mg/L)

Q: And the “MIC grade, A. niger” value (Aspergillus niger [10])?
A: 1 (a grade of 1 represents an MIC of greater than 10 mg/L)

Q: And the “MIC grade, A. fumigatus” value [11]?
A: 3 (A grade of 3 represents an MIC of less than 1 mg/L)

Q: What about the “MIC grade, A. fumigatus 210” value [12] of the same molecule?
A: 3 (A grade of 3 represents an MIC of less than 1 mg/L)

Q: What does the source list for `C=C(C)CN1CCN(c2ccc(NC(=O)C(=O)c3c(-c4ccccc4)cc(C)n3C)c(F)c2)CC1` [Example 108, 2-(1,5-Dimethyl-3-phenyl-1H-pyrrol-2-yl)-N-{2-fluoro-4-[4-(2-methyl-allyl)-piperazin-1-yl]-phenyl}-2-oxo-acetamide]?
A: MIC (Aspergillus terreus AT4 [1]): < 1 µg/mL; MIC (Aspergillus flavus [2]): < 1 µg/mL; MIC (Aspergillus terreus AT49 [3]): < 1 µg/mL; MIC (Aspergillus niger [4]): < 1 µg/mL; MIC [5]: < 1 µg/mL; MIC [6]: < 1 µg/mL; MIC (Aspergillus terreus AT4 [7]): < 1 µg/mL; MIC (Aspergillus flavus [8]): < 1 µg/mL; MIC (Aspergillus terreus AT49 [9]): < 1 µg/mL; MIC (Aspergillus niger [10]): < 1 µg/mL; MIC [11]: < 1 µg/mL; MIC [12]: < 1 µg/mL
